Experimental data as given in US9925205B2, “Compositions of multicationic drugs for reducing interactions with polyanionic biomolecules and methods of use thereof” (Insmed Incorporated, priority 2007, dated 2018).
Where “and” joins values, the source holds several entries; their conditions need not be identical. Identical values can stand only once. Counter-ions that a name gives are not always drawn. Each block holds one compound with its values, some of them ahead of it.

Columns and labels:
[1] = Effect of mono- and multi-protonic acid salts on binding of amikacin to alginate
Procedure: Various salts were tested for their ability to compete with alginate. Amikacin sulfate (0.1 mL of 1 mg/ml) was added to 0.4 mL solution of 1% Na Alginate and 0.5 mL solution of 200 mM Na salt of an Acid at pH 6.0. Samples were incubated 10 minutes at 37° C. and centrifuged in Centricon-10 for 30 minutes at 4000 rpm. Filtrate was diluted 2 fold with TDX buffer and analyzed for AMK.

[2] = Effect of pH on ability of citrate to compete with alginate for amikacin (Centricon-10, TDX); assay type: binding
[3] = system: P. Aeruginosa PAC1; test: In-vitro bioactivity of amikacin, modified disk Kirby-Bauer agar diffusion method; assay type: cell-based; conditions: for Zone size (mm): three values
Procedure: It has been shown elsewhere […] that amikacin-alginate binding can in fact reduce amikacin bioactivity against PA. One may ask whether binding to citrate will preserve bioactivity or inhibit it similar to alginate. In order to address this, activity of amikacin against P. Aeruginosa PAC1 using modified disk Kirby-Bauer agar diffusion method was tested. […] Absence of supplements was used as a control.
Activity was determined using modified disk Kirby-Bauer agar diffusion method and PAC1 PA strain.

[4] = Effect of pH on ability of citrate to compete with alginate for amikacin (Centricon-10, TDX); assay type: binding; remark: listed apart in the source
Procedure: How pH affects the ability of citrate to compete with alginate for amikacin was also tested. Here 0.5 mL sodium alginate (2%) was mixed with 0.4 mL sodium citrate (200 mM) and 0.1 mL amikacin sulfate (1 mg/mL), giving corresponding final concentrations of 1%, 80 mM, and 100 ug/mL, respectively. Two controls using either alginate or citrate alone were employed. Samples were incubated for 10 minutes at 37° C. and unbound amikacin was separated by centrifuging in Centrico-10 device for 30 minutes at 4000 rpm. Amikacin in permeate was measured by TDX (Abbott) and presented as % of total (Table 3).

[5] = Binding of amikacin to alginate in saline, free amikacin separated on Centricon-10 filter; conditions: for AMKAlg (bound amikacin, AMKt-AMKf) / AMKAlg/AMKf / AMKfree: saline, no citrate; for AMKfree: total amikacin 92.5 ug/mL
Procedure: (§1) The binding of a multicationic drug, such as amikacin, to alginate in presence salts of various (one-, two- and three-protonic) acids was tested. To study the effect of binding of amikacin to alginate, amikacin sulfate, Na citrate and Na alginate were mixed at different proportions and then free (unbound) amikacin was separated on a Cetricon-10 filtering device (MWCO 10 kD). In the absence of citrate, amikacin binds to alginate only, and the amikacin-alginate binding coefficient can be calculated from equation:
[formula] where bound amikacin can be found by subtracting free from total, and alginate free concentration is assumed to be equal to the total concentration due to excess of alginate over amikacin.
As alginate concentration increases, amikacin free measured in permeate decreases (Table 1). According to Equation 1 the ratio AMKAlg/AMKf should be proportional to the concentration of alginate, and the slope of this dependence should equal to the binding coefficient.
If one use a linear regression, the slope obtained gives us an estimate of the amikacin-alginate binding coefficient of PAlg=0.76 (mg/mL)^−1. This means that in presence of 1/PAlg˜1.3 mg/mL alginate approximately half of all amikacin will be bound to alginate.

[6] = Amikacin-citrate binding determined indirectly from competitive binding with alginate (Centricon filter); design: AMKAlg (AMKtot—AMKperm) / AMKfree / AMKcitrate: unit not given here
Procedure: as §1, with “equation: […]” for “equation:”
In the presence of citrate, amikacin can bind to both alginate and citrate. The amikacin-citrate complex is not large enough to be retained by Centricon filter and will be measured as “free” amikacin, which is actually a sum of free and citrate bound amikacin. For that reason amikacin-citrate binding can not be measured directly. It can, however, be determined indirectly from competitive binding, knowing amikacin-alginate binding coefficient PAlg.
Amikacin-citrate binding coefficient was Pcit=0.076 mM^−1. Thus in the presence of 1/Pcit˜13 mM citrate the concentration of amikacin bound to citrate is approximately equal to the concentration of free amikacin. As one can see from the above data, citrate can compete for amikacin with alginate thus reducing amount of amikacin bound to alginate. 1% Alginate can reduce AMK free concentration ˜7-fold. Citrate at 40 mM reduces this effect increasing unbound AMK ˜2.5 fold.

[7] = 0.1 mL 1 mg/ml amikacin sulfate + 0.4 mL 1% Na Alginate + 0.5 mL 200 mM Na salt of the acid, pH 6.0, 10 minutes at 37° C.
[8] = Alginate 1%, 80 mM Citrate at pH 6-7
[9] = alginate 6 mg/mL, citrate 60 mM
[10] = alginate 10 mg/mL, citrate 40 mM
[11] = alginate 14 mg/mL, citrate 20 mM
[12] = alginate 16 mg/mL, citrate 10 mM

Compound: CC(=O)[O-].[Na+] [Sodium acetate]
Amikacin not bound to alginate (%) [1, 7]: 11.2%
effect of the salt on unbound amikacin (in words) ([1]; as Table 4): not showing any increase in unbound amikacin

Amikacin not bound to alginate (%) [1, 7]: 72.1%
Compound: O=C(O)CC(O)(CC(=O)O)C(=O)O [Sodium citrate]

Compound: O=C([O-])CCCC(=O)[O-].[Na+].[Na+] [Sodium glutarate]
Amikacin not bound to alginate (%) [1, 7]: 36.7%
Amikacin not bound to alginate (%) ([1]; 0.1 mL 1 mg/ml amikacin sulfate + 0.4 mL 1% Na Alginate + 0.5 mL 200 mM Na salt of the acid, pH 6.0, 10 minutes at 37° C., listed as glutarate): ~40%

Compound: O=C([O-])/C=C\C(=O)[O-].[Na+].[Na+] [Sodium maleate]
Amikacin not bound to alginate (%) [1, 7]: 39.4%
Amikacin not bound to alginate (%) ([1]; 0.1 mL 1 mg/ml amikacin sulfate + 0.4 mL 1% Na Alginate + 0.5 mL 200 mM Na salt of the acid, pH 6.0, 10 minutes at 37° C., listed as maleate): ~40%

Amikacin not bound to alginate (%) [1, 7]: 40.2%
Amikacin not bound to alginate (%) ([1]; 0.1 mL 1 mg/ml amikacin sulfate + 0.4 mL 1% Na Alginate + 0.5 mL 200 mM Na salt of the acid, pH 6.0, 10 minutes at 37° C., listed as succinate): ~40%
Compound: O=C([O-])CCC(=O)[O-].[Na+].[Na+] [Sodium succinate]

Alginate binding efficiency ([2]; no citrate, total amikacin 0.5 mg/mL): 85.5%
AMK binding to alginate [4, 8]: ~30%
1/PAlg, alginate concentration at which approximately half of all amikacin is bound to alginate [5]: ~1.3 mg/mL
reduction of AMK free concentration by alginate ([5]; 1% Alginate): ~7 fold
AMKAlg (bound amikacin, AMKt-AMKf) ([5]; alginate 0 mg/mL): 0 µg/mL
AMKAlg/AMKf ([5]; alginate 0 mg/mL): 0
AMKfree ([5]; alginate 0 mg/mL): 92.5 µg/mL
AMKAlg (bound amikacin, AMKt-AMKf) ([5]; alginate 6 mg/mL): 72.5 µg/mL
AMKAlg/AMKf ([5]; alginate 6 mg/mL): 3.63
AMKfree ([5]; alginate 6 mg/mL): 20 µg/mL
AMKAlg (bound amikacin, AMKt-AMKf) ([5]; alginate 10 mg/mL): 79.9 µg/mL
AMKAlg/AMKf ([5]; alginate 10 mg/mL): 6.34
AMKfree ([5]; alginate 10 mg/mL): 12.6 µg/mL
AMKAlg (bound amikacin, AMKt-AMKf) ([5]; alginate 14 mg/mL): 84.5 µg/mL
AMKAlg/AMKf ([5]; alginate 14 mg/mL): 10.56
AMKfree ([5]; alginate 14 mg/mL): 8 µg/mL
AMKAlg (bound amikacin, AMKt-AMKf) ([5]; alginate 16 mg/mL): 86 µg/mL
AMKAlg/AMKf ([5]; alginate 16 mg/mL): 13.23
AMKfree ([5]; alginate 16 mg/mL): 6.5 µg/mL
PAlg AMK-Alginate binding coefficient ([5]; slope of AMKAlg/AMKf vs alginate concentration, linear regression): 0.76 (mg/ml)^−1
1/Pcit, citrate concentration at which amikacin bound to citrate approximately equals free amikacin [6]: ~13 mM
increase of unbound AMK by citrate ([6]; Citrate at 40 mM, 1% Alginate): ~2.5 fold
AMKAlg (AMKtot—AMKperm) ([6]; alginate 0 mg/mL, citrate 0 mM): 0
AMKcit/AMKf ([6]; alginate 0 mg/mL, citrate 0 mM): 0
AMKcitrate ([6]; alginate 0 mg/mL, citrate 0 mM): 0
AMKfree ([6]; alginate 0 mg/mL, citrate 0 mM): 92.5
AMKperm ([6]; alginate 0 mg/mL, citrate 0 mM): 92.5 µg/mL
AMKAlg (AMKtot—AMKperm) [6, 9]: 40.9
AMKcit/AMKf [6, 9]: 4.72
AMKcitrate [6, 9]: 42.59
AMKfree [6, 9]: 9.01
AMKperm [6, 9]: 51.6 µg/mL
AMKAlg (AMKtot—AMKperm) [6, 10]: 60.5
AMKcit/AMKf [6, 10]: 3.00
AMKcitrate [6, 10]: 24.00
AMKfree [6, 10]: 8.00
AMKperm [6, 10]: 32.0 µg/mL
AMKAlg (AMKtot—AMKperm) [6, 11]: 77
AMKcit/AMKf [6, 11]: 1.13
AMKcitrate [6, 11]: 8.23
AMKfree [6, 11]: 7.27
AMKperm [6, 11]: 15.5 µg/mL
AMKAlg (AMKtot—AMKperm) [6, 12]: 82.4
AMKcit/AMKf [6, 12]: 0.48
AMKcitrate [6, 12]: 3.29
AMKfree [6, 12]: 6.81
AMKperm [6, 12]: 10.1 µg/mL
Pcit AMK-Citrate binding coefficient ([6]; slope of AMKcit/AMKf vs citrate concentration): 0.076 mM⁻¹
Amikacin not bound to alginate (%) ([1]; Control (no acid salt named)): 17.7%
Compound: NCC[C@H](O)C(=O)N[C@@H]1C[C@H](N)[C@@H](O[C@H]2O[C@H](CN)[C@@H](O)[C@H](O)[C@H]2O)[C@H](O)[C@H]1O[C@H]1O[C@H](CO)[C@@H](O)[C@H](N)[C@H]1O [amikacin]
Amikacin not bound to alginate (%) ([2]; Alg, no Citrate, AMK 0.5 mg/mL): 14.5%
Zone size (mm) ([3]; Alginate 1%): 21 mm
Zone size (mm) ([3]; Alginate + Citrate): 28 mm and 29 mm
Zone size (mm) ([3]; Citrate 100 mM): 28 mm
effect on activity of amikacin (in words) ([3]; Citrate at concentration 100 mM): does not affect activity
Zone size (mm) ([3]; Control, MH medium without supplements): 28 mm and 29 mm
effect on activity of amikacin (in words) ([3]; both alginate and citrate present): citrate actually restored activity of amikacin
binding capacity of alginate [4]: at least 0.05 mg amikacin per mg alginate
Amikacin not bound to alginate (%) ([4]; Alg + Citrate pH 5, alginate 1%, citrate 80 mM, amikacin 100 ug/mL): 56.4%
Amikacin not bound to alginate (%) ([4]; Alg + Citrate pH 6, alginate 1%, citrate 80 mM, amikacin 100 ug/mL): 70.4%
Amikacin not bound to alginate (%) ([4]; Alg + Citrate pH 7, alginate 1%, citrate 80 mM, amikacin 100 ug/mL): 68.1%
Amikacin not bound to alginate (%) ([4]; Alg, no Citrate, alginate 1%, amikacin 100 ug/mL): 11.9%
Amikacin not bound to alginate (%) ([4]; Alg, no Citrate, alginate 1%, amikacin 100 ug/mL, listed as AMK): 12%
unbound AMK [4, 8]: ~70%
AMK bound by alginate ([4]; Alginate 1%, absence of citrate): ~88%
Amikacin not bound to alginate (%) ([4]; Citrate, no Alginate): 100%

Compound: Sodium tartarate
Amikacin not bound to alginate (%) [1, 7]: 41.4%
Amikacin not bound to alginate (%) ([1]; 0.1 mL 1 mg/ml amikacin sulfate + 0.4 mL 1% Na Alginate + 0.5 mL 200 mM Na salt of the acid, pH 6.0, 10 minutes at 37° C., listed as taratrate): ~40%
